Values of other authors as cited in US20110184379A1, “METHOD AND SYSTEM TO DEFINE PATIENT SPECIFIC THERAPEUTIC REGIMENS BY MEANS OF PHARMACOKINETIC AND PHARMACODYNAMIC TOOLS” (MEDTRONIC, INC., priority 2008, published 2011).
Like-named read-outs stand apart in the source and are kept apart here.

Experiments:
[1] = system: genotype 1 HCV polymerases
[2] = preliminary review of blinded data, four completed cohorts
HCV [3] = settings: for viral load reduction: oral
HCV [4] = system: HCV
HCV [5] = system: HCV; remark: listed apart in the source
[6] = system: chronic hepatitis C virus (HCV) genotype 1; settings: for SVR at 24 weeks after the end of treatment (SVR 24): 28-week Boceprevir arm
HCV genotype-1 = settings: 14-day course
HCV genotype 1 = settings: 5 days of dosing
[7] = system: Hepatitis C virus replicon
HCV [8] = system: HCV; remark: listed apart in the source
HCV [9] = system: HCV; remark: listed apart in the source

For `COC[C@H]1C[C@@](Cn2cccn2)(C(=O)O)N(C(=O)c2ccc(C(C)(C)C)c(OC)c2)[C@H]1c1nccs1` [GSK625433], the “inhibition of genotype 1 HCV polymerases” value [1] is listed as “highly potent and selective inhibitor” and the “interaction with interferon in vitro” value [1] is listed as “synergistic”.

In the case of `CC(C)(C)OC(=O)N[C@H]1CCCCC/C=C\[C@@H]2C[C@@]2(C(=O)NS(=O)(=O)C2CC2)NC(=O)[C@@H]2C[C@@H](OC(=O)N3Cc4cccc(F)c4C3)CN2C1=O` [ITMN-191], the safety and tolerability [2] is given as “safe and well-tolerated”, the safety and tolerability (preliminary safety data, doses intended for Phase 1b) is given as “well tolerated and safe” and the serious adverse events (single ascending dose, healthy subjects) is given as “no serious adverse events were reported”.

For `[N-]=[N+]=N[C@]1(CO)O[C@@H](n2ccc(N)nc2=O)[C@H](O)[C@@H]1O` [R1626, 4′-azidocytidine], the viral load reduction (HCV [3]; 100 mg dose (so in the source)) is given as 1.2 log 10, the viral load reduction (HCV [3]; 300 mg dose (so in the source)) is given as 2.6 log 10 and the viral load reduction (HCV [3]; 4500 mg dose) is given as 3.7 log 10. For the same molecule, the viral resistance (HCV [3]; human, in vivo) was “No viral resistance was found”, the tolerability (HCV [3]; increasing adverse events at the highest dose (4500 mg)) was “generally well-tolerated” and the “End-of-Treatment Response” value (HCV [4]; 4 weeks R1626 + Peginterferon Alfa-2a (40 kd) + Ribavirin, then 44 weeks Peginterferon Alfa-2a + Ribavirin) was 84%. For the same molecule, the barrier to resistance (HCV [4]; in vivo) was “high barrier to resistance”.

In the case of `CC(C)C(=O)OC[C@H]1O[C@@H](n2ccc(N)nc2=O)[C@](C)(F)[C@@H]1OC(=O)C(C)C` [R71278], the “decrease in HCV RNA (viral load)” value (HCV [5]; 1,500 mg twice-daily arm) is given as greater than 99%, the “antiviral activity across all dosing arms” value (HCV [5]; in vivo) is given as “dose-dependent antiviral activity” and the safety and tolerability (HCV [5]; in vivo) is given as “generally safe and well-tolerated with no serious adverse events”.

In the case of `CC(C)(C)NC(=O)N[C@H](C(=O)N1C[C@H]2[C@@H]([C@H]1C(=O)NC(CC1CCC1)C(=O)C(N)=O)C2(C)C)C(C)(C)C` (some centres unmarked) [SCH503034], the “SVR at 24 weeks after the end of treatment (SVR 24)” value ([6]; lead-in) is listed as 56%, the “SVR at 24 weeks after the end of treatment (SVR 24)” value ([6]; no lead-in) is listed as 55% and the “SVR rate at 12 weeks after the end of treatment (SVR 12)” value ([6]; 48-week regimen, 4 weeks PEGINTRON + REBETOL lead-in before Boceprevir 800 mg TID, ITT) is listed as 74%. The “SVR 12” value ([6]; 48 weeks Boceprevir + PEGIntron + REBETOL from the beginning, no P/R lead-in) was 66%, the “SVR (ITT) in patients with rapid virologic response (RVR)” value ([6]; lead-in, 28-week regimen) was 82% and the “SVR (ITT) in patients with rapid virologic response (RVR)” value ([6]; lead-in, 48 week regimen) was 92%. For the same molecule, the “maximum HCV RNA reduction” value (HCV genotype-1; 400 mg group) was “more than 2 logs” and the safety and tolerability (HCV genotype-1) was “safe and well-tolerated with no serious adverse events”.

For `COc1ccc2c(O[C@@H]3C[C@H]4C(=O)N[C@]5(C(=O)NS(=O)(=O)C6CC6)C[C@H]5/C=C\CCCCN(C)C(=O)[C@@H]4C3)cc(-c3nc(C(C)C)cs3)nc2c1C` [TMC435350], the tolerability (HCV genotype 1) is given as “well tolerated”, the antiviral activity (HCV genotype 1; genotype 1 infected individuals) is given as “strong and rapid antiviral activity” and the appearance of drug-resistance ([7]; combination with interferon) is given as “suppress the appearance of drug-resistance”. The RNA reduction ([7]; combination with interferon, replicon model) was greater than 4 logs and the “effect on Hepatitis C virus replication” value ([7]; replicon experiments, via protease inhibition) was “reduce the amount of Hepatitis C virus replication”.

In the case of `NC(=O)c1ncn([C@@H]2O[C@H](CO)[C@@H](O)[C@H]2O)n1` [ribavirin, 1-β-D-ribofuranosyl-1H-1,2,4-triazole-3-carboxamide], the efficacy (HCV [8]; monotherapy) is given as “negligible efficacy”.

In the case of interferon-α, the “therapeutic effectiveness of the combination” value (HCV [8]; ribavirin combined with interferon-α, genotype 1 population) is given as 29%, the “delay before HCV RNA decline” value (HCV [9]; IFN or IFN plus ribavirin) is given as 7 to 10 h and the “fall of HCV RNA in the first phase (1-2 days), on average” value (HCV [9]; genotype 1 infected patients) is given as 1-2 logs.
